Data published in ChEMBL document CHEMBL1130522, “Orevactaene,1 a novel binding inhibitor of HIV-1 rev protein to Rev response element (RRE) from Epicoccum nigrum WC47880” (Bioorg Med Chem Lett, 1997).

What was measured:
[1] = Inhibitory activity towards HIV-I regulatory protein Rev and its viral RNA-binding site, Rev response element (RRE) binding
M109 = experiment: The compound was tested for its cytotoxicity on the murine tumor cell line M109; assay type: functional, cell-based; conditions: Mus musculus

IC50 [1]: 3.6 µM
Compound: CCC(C)CC(C)/C=C(/C=C(C)/C=C/C=C/C=C/C=C/C=C/c1cc2c(c(=O)o1)[C@H](O)[C@@H](O)[C@H](C(O)C(O)CO)O2)C(=O)O (some centres not stated)
IC50 (M109): 82 µM
